pIC50: −log10 of the molar value. “Also recorded” adds a separate entry of the source.
Columns and labels:
Assay type in all cases: binding
[1] = target: T1, Flag-tagged SIN3A (a.a. 1-400) (Homo sapiens, UniProt Q96ST3); assay: competitive gel-based ABPP, apparent IC50; details: probe 17, HEK293T cell lysates
T1 construct: expressed in transfected cells; host or cells: HEK 293T, transient transfection, lysate
Method: (§1) Recombinant expression of proteins by transient transfection. HEK 293T cells were grown to 50% confluency in 10 ml DMEM supplemented with 10% fetal bovine serum (FBS), penicillin, streptomycin and glutamine in 10 cm tissue culture dishes. 3 μg of DNA was diluted in 500 μL DMEM and 30 μL of PEI (MW 40,000, 1 mg ml^−1, Polysciences) were added. The mixture was incubated at room temperature for 30 min and added dropwise to the cells. Cells were grown for 48 h at 37° C. with 5% CO2. Cells were washed with cold PBS, scraped with cold PBS and cell pellets were isolated by centrifugation (1,400 g, 3 min, 4° C.), and stored at −80° C. until use. Cell pellets were resuspended in PBS, lysed by sonication and fractionated (100,000 g, 45 min) to yield soluble and membrane fractions. The soluble fraction was adjusted to a final protein concentration of 1 mg ml^−1 for gel-based ABPP experiments.
(§2) Competitive gel-based ABPP and apparent IC50 values. 50 μl of soluble proteome (1 mg ml^−1) expressing the indicated protein were treated with fragment electrophiles (1 μl of 50× stock solution in DMSO) at ambient temperature for 1 h. The indicated probe (fluorophore or alkyne-containing, 1 μl of a 500 μM solution, final concentration=10 μM) was then added and allowed to react for an additional 1 h. CuAAC and in-gel fluorescence analysis were performed as described above. For quantification of inhibition and apparent IC50 determination, the percentage of labeling was determined by quantifying the integrated optical intensity of the bands using ImageLab 5.2.1 software (BioRad). Nonlinear regression analysis was used to determine the IC50 values from a dose-response curve generated using GraphPad Prism 7.

TGIF2-SIN3A interaction = target: T2, TGIF2-SIN3A interaction (Homo sapiens, UniProt Q96ST3); assay: ABPP-SILAC IP experiment for SIN3A interacting proteins; details: 21 50 μM
T2 construct: expressed in transfected cells; host or cells: SILAC HEK 293T
Method: (§3) ABPP-SILAC IP experiment for SIN3A interacting proteins. All SILAC experiments were performed using the isotopically labeled human HEK 293T cell line generated by 8 passages in either light (100 μg ml^−1 each of L-arginine and L-lysine) or heavy (100 μg ml^−1 each of [^13C6^15N4]L-arginine and [^13C6^15N2]L-lysine) SILAC DMEM media (Thermo Scientific) supplemented with 10% dialyzed fetal calf serum, penicillin, streptomycin and glutamine. 2×10^5 SILAC HEK 293T cells were plated in 6 cm dishes in either heavy or light labeled SILAC media. Cells were transfected the next day with 1 μg of FLAG-GFP, or FLAG-SIN3A wild type, K155R, or K155W constructs as indicated. After 48 hours, cells were rinsed with ice-cold PBS and suspended in cold IP-lysis buffer (0.5% Chaps, 50 mM Hepes pH 7.4, 150 mM NaCl, and EDTA-free protease inhibitors and phosphatase inhibitors (Roche)) by gentle sonication. Samples were rotated for 30 minutes at 4° C. to complete lysis. For compound treatment experiments, 50 μM (final concentration) of 21 was added to samples prior to rotation. Samples were clarified by centrifugation for 1 minute at 16,000 rpm, and protein concentration was measured using the DC Protein Assay kit (Bio-Rad). Samples were normalized to 2 mg/mL by addition of cold IP-lysis buffer. 25 μL of anti-FLAG-M2 beads was added to the clarified supernatant and incubated for 3 h while rotating at 4° C. Beads were washed three times with cold PBS, and then eluted with 40 μL of […] for 10 min at 65° C. […] LC-MS spectra were collected and analyzed as described above with the following modifications. […] A list of all proteins enriched preferentially by SIN3A was generated from a comparison of SIN3A wild type vs GFP immunoprecipitations, including all proteins with at least two distinct quantified peptide sequences and a median ratio greater than or equal to 5 (R>5). […] Furthermore, if there were at least two quantified unique peptides, the median ratio of each protein's unique peptides (not occurring in any other human protein) were reported.

TGIF1-SIN3A interaction = target: T3, TGIF1-SIN3A interaction (Homo sapiens, UniProt Q96ST3); assay: as above; details: 21 50 μM
T3 construct: expressed in transfected cells; host or cells: SILAC HEK 293T
Method: as §3

[2] = target: T4, SIN3A-interacting proteins MAX, MNT and MXI1 (Homo sapiens, UniProt Q96ST3); assay: as above; details: 21 50 μM
T4 construct: expressed in transfected cells; host or cells: SILAC HEK 293T
Method: as §3

NUDT2 = target: T5, NUDT2 (Homo sapiens, UniProt P50583); assay: competitive gel-based ABPP, apparent IC50
T5 construct: expressed in transfected cells; host or cells: HEK 293T, transient transfection, soluble lysate; synthesized gene (IDT)
Method: as §1, §2

T1 sequence (Q96ST3 1-400): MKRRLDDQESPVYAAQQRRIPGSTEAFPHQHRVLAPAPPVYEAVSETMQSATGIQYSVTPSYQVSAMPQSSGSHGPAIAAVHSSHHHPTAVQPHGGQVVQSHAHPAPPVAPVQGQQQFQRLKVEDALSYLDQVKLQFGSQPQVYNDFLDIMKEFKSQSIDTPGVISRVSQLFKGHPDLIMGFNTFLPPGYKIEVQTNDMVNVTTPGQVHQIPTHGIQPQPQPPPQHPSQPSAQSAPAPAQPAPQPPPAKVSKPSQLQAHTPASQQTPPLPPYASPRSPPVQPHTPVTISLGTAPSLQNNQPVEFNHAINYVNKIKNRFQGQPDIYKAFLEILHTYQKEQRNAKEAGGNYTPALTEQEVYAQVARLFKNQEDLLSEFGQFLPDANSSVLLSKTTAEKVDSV
T5 sequence (P50583 whole entry): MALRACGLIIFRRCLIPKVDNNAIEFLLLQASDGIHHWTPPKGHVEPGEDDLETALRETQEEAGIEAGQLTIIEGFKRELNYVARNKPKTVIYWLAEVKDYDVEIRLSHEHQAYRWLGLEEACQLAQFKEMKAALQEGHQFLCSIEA
T2 sequence (Q96ST3 1-400): as the sequence (Q96ST3 1-400) above
T3 sequence (Q96ST3 1-400): as above
T4 sequence (Q96ST3 1-400): as above

pIC50 ([1]; read-out: apparent IC50, blockade of probe labeling of K155) | effect on TGIF2-SIN3A interaction (TGIF2-SIN3A interaction) | effect on co-immunoprecipitation of MAX, MNT and MXI1 with WT-SIN3A [2] | blockade of probe 1-labeling of K89 in NUDT2 (NUDT2; FIG. 11G) | pIC50 (NUDT2; gel-based ABPP, read-out: apparent IC50, blockade of probe labeling of NUDT2) | SMILES | blockade of probe labeling of K155 [1] | effect on TGIF1-SIN3A interaction (TGIF1-SIN3A interaction)
5.30 | marginal effect | not affected | – | – | O=C(Oc1c(F)c(F)c(F)c(F)c1F)c1cc(C(F)(F)F)cc(C(F)(F)F)c1 [fragment 21, Pentafluorophenyl 3,5-bis(trifluoromethyl)benzoate] | site-specific and complete blockade of probe labeling of K155; also recorded: blocks probe 17 labeling of SIN3A at K155 in a concentration-dependent manner | strongly blocked the TGIF1-SIN3A interaction
– | – | – | quantitatively blocked | 5.70 | COC(=O)NC(=NC(=O)OCC1c2ccccc2-c2ccccc21)n1cccn1 [fragment 49, N-Methoxycarbonyl-N′-9-fluorenylmethoxycarbonyl-pyrazole-1-carboxamidine] | – | –
